Tests used:
wheat = assay: Test A pre-/postemergence herbicide test; type: in vivo, Triticum aestivum; settings: Postemergence
Method in brief: (§1)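 Planted in loam–sand blend; treated the same day preemergence by directed soil spray, while separately grown plants at one- to two-leaf stage got postemergence spray. Compared visually with untreated controls after approximately 10 days; 100 means complete control.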

barnyardgrass [1] = assay: Test A pre-/postemergence herbicide test; type: in vivo, Echinochloa crus-galli
Method in brief: as §1

galium = assay: Test A postemergence herbicide test; type: in vivo, Galium aparine
Method in brief: (§2)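 Plants at the one- to two-leaf stage, 2–10 cm tall, grown in loam/sand pots, received postemergence sprays of the test chemicals. After about 10 days in the greenhouse, injury was scored visually against untreated controls on a 0–100 scale (0 none, 100 complete control).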

rice = assay: Test B flooded paddy test; type: in vivo, Oryza sativa; settings: 500 g ai/ha, Flood; scale of 0 to 100 where 0 is no effect and 100 is complete control
Method in brief: (§3)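 Paddy-water application at a 3 cm flood, young plants having two leaves. Water level maintained; greenhouse, 13–15 days; visual 0–100 control rating.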

kochia = assay: Test A pre-/postemergence herbicide test; type: in vivo, Kochia scoparia
Method in brief: as §1

ducksalad = assay: Test B flooded paddy test; type: in vivo, Heteranthera limosa; settings: 500 g ai/ha, Flood; scale of 0 to 100 where 0 is no effect and 100 is complete control
Method in brief: as §3

pigweed = assay: Test A pre-/postemergence herbicide test; type: in vivo, Amaranthus retroflexus
Method in brief: as §1

sedge, umbrella = assay: Test B flooded paddy test; type: in vivo, Cyperus difformis; settings: 500 g ai/ha, Flood; scale of 0 to 100 where 0 is no effect and 100 is complete control
Method in brief: as §3

corn = assay: Test A pre-/postemergence herbicide test; type: in vivo, Zea mays; settings: Postemergence
Method in brief: as §1

ryegrass, Italian = assay: Test A pre-/postemergence herbicide test; type: in vivo, Lolium multiflorum
Method in brief: as §1

blackgrass = assay: Test A postemergence herbicide test; type: in vivo, Alopecurus myosuroides
Method in brief: as §2

barnyardgrass [2] = assay: Test B flooded paddy test; type: in vivo, Echinochloa crus-galli; settings: 500 g ai/ha, Flood; scale of 0 to 100 where 0 is no effect and 100 is complete control
Method in brief: as §3

giant foxtail = assay: Test A pre-/postemergence herbicide test; type: in vivo, Setaria faberii
Method in brief: as §1

ragweed = assay: Test A pre-/postemergence herbicide test; type: in vivo, Ambrosia elatior
Method in brief: as §1

[3] = 125 g ai/ha, visual rating on 0 to 100 scale (0 no effect, 100 complete control), approx. 10 days
[4] = 500 g ai/ha, 0 to 100 scale (0 no effect, 100 complete control)
[5] = Postemergence, 125 g ai/ha, visual rating on 0 to 100 scale (0 no effect, 100 complete control), approx. 10 days
[6] = Postemergence, 500 g ai/ha, 0 to 100 scale (0 no effect, 100 complete control)
[7] = Preemergence, 125 g ai/ha, 0 to 100 scale where 0 is no effect and 100 is complete control
[8] = preemergence, 500 g ai/ha, 0 to 100 scale, 0 is no effect and 100 is complete control
[9] = Preemergence, 500 g ai/ha, visual rating on 0 to 100 scale (0 no effect, 100 complete control)

SMILES | Plant response rating, Wheat (wheat; [3]) | Plant response rating, Wheat (wheat; [4]) | Plant response rating, Barnyardgrass (barnyardgrass [1]; [5]) | Plant response rating, Barnyardgrass (barnyardgrass [1]; [6]) | Plant response rating, Barnyardgrass (barnyardgrass [1]; [7]) | Plant response rating, Galium (galium; [3]) | Plant response rating, Galium (galium; [4]) | Plant response rating, Rice (rice) | Plant response rating, Kochia (kochia; [5]) | Plant response rating, Kochia (kochia; [6]) | Plant response rating, Kochia (kochia; [7]) | Plant response rating, Ducksalad (ducksalad) | Plant response rating, Pigweed (pigweed; [5]) | Plant response rating, Pigweed (pigweed; [6]) | Plant response rating, Pigweed (pigweed; [7]) | Plant response rating, Sedge, Umbrella (sedge, umbrella) | Plant response rating, Corn (corn; [3]) | Plant response rating, Corn (corn; [4]) | Plant response rating, Ryegrass, Italian (ryegrass, Italian; [5]) | Plant response rating, Ryegrass, Italian (ryegrass, Italian; [6]) | other results
O=C1NCC(c2ccc(Cl)s2)C1C(=O)Nc1ccccc1F (stereo not drawn) [Compound 292] | 0 | 0 | 50 | 70 | 70 | 10 | 20 | 0 | 0 | 0 | 30 | 100 | 0 | 0 | 0 | 0 | 0 | 0 | 0 | 0 | Plant response rating, Barnyardgrass (barnyardgrass [1]; [8]): 80; Plant response rating, Kochia (kochia; [8]): 80; Plant response rating, Pigweed (pigweed; [8]): 0; Plant response rating, Ryegrass, Italian (ryegrass, Italian; [7]): 0; Ryegrass, Italian plant response rating (ryegrass, Italian; [9]): 0; Plant response rating, Blackgrass (blackgrass; [3]): 0; Plant response rating, Blackgrass (blackgrass; [4]): 0; Plant response rating, Barnyardgrass (barnyardgrass [2]): 50; Plant response rating, Foxtail, Giant (giant foxtail; [5]): 50; Plant response rating, Foxtail, Giant (giant foxtail; [6]): 60; Plant response rating, Foxtail, Giant (giant foxtail; [7]): 50; Plant response rating, Foxtail, Giant (giant foxtail; [8]): 60; Plant response rating, Ragweed (ragweed; [5]): 0; Plant response rating, Ragweed (ragweed; [6]): 0; Plant response rating, Ragweed (ragweed; [7]): 0; Plant response rating, Ragweed (ragweed; [8]): 0
O=C1NCC(c2cnn(CC(F)(F)F)c2)C1C(=O)Nc1ccccc1F (stereo not drawn) [Compound 298] | 0 | 0 | 0 | 0 | 0 | 0 | 0 | 0 | 0 | 0 | 0 | 0 | 0 | 0 | 0 | 0 | 0 | 0 | 0 | 0 | Plant response rating, Barnyardgrass (barnyardgrass [1]; [8]): 0; Plant response rating, Kochia (kochia; [8]): 0; Plant response rating, Pigweed (pigweed; [8]): 0; Plant response rating, Ryegrass, Italian (ryegrass, Italian; [7]): 0; Ryegrass, Italian plant response rating (ryegrass, Italian; [9]): 0; Plant response rating, Blackgrass (blackgrass; [3]): 0; Plant response rating, Blackgrass (blackgrass; [4]): 0; Plant response rating, Barnyardgrass (barnyardgrass [2]): 0; Plant response rating, Foxtail, Giant (giant foxtail; [5]): 0; Plant response rating, Foxtail, Giant (giant foxtail; [6]): 0; Plant response rating, Foxtail, Giant (giant foxtail; [7]): 0; Plant response rating, Foxtail, Giant (giant foxtail; [8]): 0; Plant response rating, Ragweed (ragweed; [5]): 0; Plant response rating, Ragweed (ragweed; [6]): 0; Plant response rating, Ragweed (ragweed; [7]): 0; Plant response rating, Ragweed (ragweed; [8]): 0
O=C1NCC(c2cnn(CC(F)(F)F)c2)C1C(=O)Nc1ccccc1C(F)(F)F (stereo not drawn) [Compound 300] | 0 | 0 | 0 | 0 | 0 | 0 | 0 | 0 | 0 | 0 | 0 | 0 | 0 | 0 | 0 | 0 | 0 | 0 | 0 | 0 | Plant response rating, Barnyardgrass (barnyardgrass [1]; [8]): 0; Plant response rating, Kochia (kochia; [8]): 0; Plant response rating, Pigweed (pigweed; [8]): 0; Plant response rating, Ryegrass, Italian (ryegrass, Italian; [7]): 0; Ryegrass, Italian plant response rating (ryegrass, Italian; [9]): 0; Plant response rating, Blackgrass (blackgrass; [3]): 0; Plant response rating, Blackgrass (blackgrass; [4]): 0; Plant response rating, Barnyardgrass (barnyardgrass [2]): 0; Plant response rating, Foxtail, Giant (giant foxtail; [5]): 0; Plant response rating, Foxtail, Giant (giant foxtail; [6]): 0; Plant response rating, Foxtail, Giant (giant foxtail; [7]): 0; Plant response rating, Foxtail, Giant (giant foxtail; [8]): 0; Plant response rating, Ragweed (ragweed; [5]): 0; Plant response rating, Ragweed (ragweed; [6]): 0; Plant response rating, Ragweed (ragweed; [7]): 0; Plant response rating, Ragweed (ragweed; [8]): 0
O=C1NCC(c2cccc(Br)c2)C1C(=O)Nc1ccccc1Cl (stereo not drawn) [Compound 311] | 0 | 0 | 60 | 80 | 70 | 0 | 0 | 0 | 0 | 0 | 0 | 98 | 0 | 0 | 0 | 0 | 0 | 0 | 0 | 0 | Barnyardgrass plant response rating (barnyardgrass [1]; [9]): 80; Kochia plant response rating (kochia; [9]): 0; Pigweed plant response rating (pigweed; [9]): 0; Plant response rating, Ryegrass, Italian (ryegrass, Italian; [7]): 0; Ryegrass, Italian plant response rating (ryegrass, Italian; [9]): 0; Plant response rating, Blackgrass (blackgrass; [3]): 0; Plant response rating, Blackgrass (blackgrass; [4]): 30; Plant response rating, Barnyardgrass (barnyardgrass [2]): 50; Plant response rating, Foxtail, Giant (giant foxtail; [5]): 60; Plant response rating, Foxtail, Giant (giant foxtail; [6]): 70; Plant response rating, Foxtail, Giant (giant foxtail; [7]): 80; Foxtail, Giant plant response rating (giant foxtail; [9]): 90; Plant response rating, Ragweed (ragweed; [5]): 0; Plant response rating, Ragweed (ragweed; [6]): 0; Plant response rating, Ragweed (ragweed; [7]): 0; Ragweed plant response rating (ragweed; [9]): 0
O=C1NCC(c2cccc(C(F)(F)F)c2)C1C(=O)Nc1cc(F)ccc1F (stereo not drawn) [Compound 314] | 0 | 0 | 30 | 80 | 20 | 0 | 0 | 15 | 0 | 0 | 0 | 40 | 0 | 0 | 0 | 0 | 0 | 0 | 0 | 0 | Barnyardgrass plant response rating (barnyardgrass [1]; [9]): 80; Kochia plant response rating (kochia; [9]): 0; Pigweed plant response rating (pigweed; [9]): 0; Plant response rating, Ryegrass, Italian (ryegrass, Italian; [7]): 0; Ryegrass, Italian plant response rating (ryegrass, Italian; [9]): 0; Plant response rating, Blackgrass (blackgrass; [3]): 0; Plant response rating, Blackgrass (blackgrass; [4]): 0; Plant response rating, Barnyardgrass (barnyardgrass [2]): 25; Plant response rating, Foxtail, Giant (giant foxtail; [5]): 60; Plant response rating, Foxtail, Giant (giant foxtail; [6]): 80; Plant response rating, Foxtail, Giant (giant foxtail; [7]): 30; Foxtail, Giant plant response rating (giant foxtail; [9]): 90; Plant response rating, Ragweed (ragweed; [5]): 0; Plant response rating, Ragweed (ragweed; [6]): 0; Plant response rating, Ragweed (ragweed; [7]): 0; Ragweed plant response rating (ragweed; [9]): 0

From patent publication US10294202B2, “Pyrrolidinones as herbicides” (FMC Corporation, priority 2013, dated 2019)
